Numbers after ± are expanded uncertainties.
Key:
[1] = for surface tension liquid-gas: Ring tensiometer; for mass density: 101.33 kPa, Liquid
[2] = xn = mol fraction of the nth substance listed; conditions: Ring tensiometer

CCCCCCO [hexan-1-ol]
[1], 298.15 K
Conditions	mass density [kg/m3]	surface tension liquid-gas [mN/m]
–	815.02 ± 0.98	25.69 ± 0.42

OCCO [1,2-ethanediol] + CCCCCCO
[2], x2 = 0
Conditions	surface tension liquid-gas [mN/m]
298.15 K	47.79 ± 0.68
303.15 K	47.57 ± 0.67
308.15 K	47.25 ± 0.67
313.15 K	47.1 ± 0.67
318.15 K	46.4 ± 0.66

CCCCCCCO [heptan-1-ol]
Conditions	surface tension liquid-gas [mN/m]
[1], 298.15 K	26.38 ± 0.42

Conditions	mass density [kg/m3]
[1], 298.15 K, Vibrating tube method	818.11 ± 0.81

CCCCCO [pentan-1-ol]
[1], 298.15 K
Conditions	mass density [kg/m3]	surface tension liquid-gas [mN/m]
–	811.1 ± 0.99	24.89 ± 0.41

CCCCCCO [hexan-1-ol] + OCCO
surface tension liquid-gas [mN/m], [2]
Conditions	298.15 K	303.15 K	308.15 K	313.15 K	318.15 K
x1 = 0.0429	32.5 ± 0.52	32.81 ± 0.49	32.68 ± 0.49	31.55 ± 0.48	31.38 ± 0.52
x1 = 0.1009	29.07 ± 0.45	29.49 ± 0.46	29.34 ± 0.46	29.27 ± 0.45	28.97 ± 0.45
x1 = 0.2761	28 ± 0.44	27.47 ± 0.44	27.31 ± 0.43	27.15 ± 0.43	26.91 ± 0.43
x1 = 0.3098	27.9 ± 0.44	27.32 ± 0.43	27.19 ± 0.43	27.02 ± 0.43	26.8 ± 0.43
x1 = 0.35	27.38 ± 0.44	27.12 ± 0.43	26.98 ± 0.43	26.81 ± 0.43	26.63 ± 0.43
x1 = 0.3942	27.32 ± 0.43	26.98 ± 0.43	26.83 ± 0.43	26.68 ± 0.43	26.47 ± 0.43
x1 = 0.4468	27.24 ± 0.43	26.78 ± 0.43	26.63 ± 0.43	26.47 ± 0.43	26.31 ± 0.42
x1 = 0.5079	27.03 ± 0.43	26.48 ± 0.43	26.35 ± 0.42	26.17 ± 0.42	25.97 ± 0.42
x1 = 0.5405	26.82 ± 0.43	26.38 ± 0.42	26.25 ± 0.42	26.07 ± 0.42	25.88 ± 0.42
x1 = 0.6061	26.71 ± 0.43	26.17 ± 0.42	26.01 ± 0.42	25.85 ± 0.42	25.67 ± 0.42
x1 = 0.6452	26.62 ± 0.43	25.97 ± 0.42	25.78 ± 0.42	25.65 ± 0.42	25.48 ± 0.42
x1 = 0.6897	26.51 ± 0.43	25.75 ± 0.42	25.58 ± 0.42	25.38 ± 0.41	25.21 ± 0.41
x1 = 0.7407	26.43 ± 0.43	25.48 ± 0.42	25.3 ± 0.41	25.16 ± 0.41	24.99 ± 0.41
x1 = 0.8	26.34 ± 0.43	25.38 ± 0.41	25.19 ± 0.41	25.02 ± 0.41	24.81 ± 0.41
x1 = 0.8333	26.28 ± 0.43	25.25 ± 0.41	25.17 ± 0.41	24.98 ± 0.41	24.75 ± 0.41
x1 = 0.9091	26.22 ± 0.43	25.16 ± 0.41	24.97 ± 0.41	24.78 ± 0.41	24.56 ± 0.41
x1 = 0.9524	26.16 ± 0.42	25.02 ± 0.41	24.81 ± 0.41	24.61 ± 0.41	24.45 ± 0.4

OCCO [1,2-ethanediol]
[1]
Conditions	surface tension liquid-gas [mN/m]
298.15 K	47.79 ± 0.68
303.15 K	47.57 ± 0.67
308.15 K	47.25 ± 0.67
313.15 K	47.1 ± 0.67
318.15 K	46.4 ± 0.66

Reference: the NIST ThermoML archive (doi:10.1021/je800101v)
